pIC50: −log10 of the molar value. ≈ marks a conversion by molar mass, not a printed value.
Legend:
Candida albicans = experiment: Antimicrobial activity against Candida albicans assessed as inhibition of bacterial growth incubated for 16 to 18 hrs by broth micro dilution technique; format: functional; conditions: time 16-18 hrs
Micrococcus luteus = experiment: Antimicrobial activity against Micrococcus luteus ML01 assessed as inhibition of bacterial growth incubated for 16 to 18 hrs by broth micro dilution technique; format: functional; conditions: time 16-18 hrs
A549 = experiment: Cytotoxicity against human A549 cells assessed as growth inhibition incubated for 68 hrs by MTT assay; format: functional, cell-based; conditions: A549, 68 h
HL-60 = experiment: Cytotoxicity against human HL-60 cells assessed as growth inhibition incubated for 68 hrs by MTT assay; format: functional, cell-based; conditions: HL-60, 68 h
Enterococcus faecium = experiment: Antimicrobial activity against Enterococcus faecium ATCC 35682 assessed as inhibition of bacterial growth incubated for 16 to 18 hrs by broth micro dilution technique; format: functional; conditions: time 16-18 hrs
Staphylococcus aureus [1] = experiment: Antimicrobial activity against Staphylococcus aureus Sau 16162 assessed as inhibition of bacterial growth incubated for 16 to 18 hrs by broth micro dilution technique; format: functional; conditions: time 16-18 hrs
Staphylococcus aureus [2] = experiment: Antimicrobial activity against Staphylococcus aureus ATCC 29213 assessed as inhibition of bacterial growth incubated for 16 to 18 hrs by broth micro dilution technique; format: functional; conditions: time 16-18 hrs
Bacillus thuringiensis = experiment: Antimicrobial activity against Bacillus thuringiensis BT01 assessed as inhibition of bacterial growth incubated for 16 to 18 hrs by broth micro dilution technique; format: functional; conditions: time 16-18 hrs
Staphylococcus aureus [3] = experiment: Antimicrobial activity against Staphylococcus aureus Sau 718306 assessed as inhibition of bacterial growth incubated for 16 to 18 hrs by broth micro dilution technique; format: functional; conditions: time 16-18 hrs
Enterococcus faecalis = experiment: Antimicrobial activity against Enterococcus faecalis ATCC 29212 assessed as inhibition of bacterial growth incubated for 16 to 18 hrs by broth micro dilution technique; format: functional; conditions: time 16-18 hrs
Staphylococcus aureus [4] = experiment: Antimicrobial activity against Staphylococcus aureus Sau 6917 assessed as inhibition of bacterial growth incubated for 16 to 18 hrs by broth micro dilution technique; format: functional; conditions: time 16-18 hrs
MCF7 = experiment: Cytotoxicity against human MCF7 cells assessed as growth inhibition incubated for 68 hrs by MTT assay; format: functional, cell-based; conditions: MCF7, 68 h
Staphylococcus aureus [5] = experiment: Antimicrobial activity against Staphylococcus aureus Sau 745524 assessed as inhibition of bacterial growth incubated for 16 to 18 hrs by broth micro dilution technique; format: functional; conditions: time 16-18 hrs
Staphylococcus aureus [6] = experiment: Antimicrobial activity against Staphylococcus aureus Sau 1862 assessed as inhibition of bacterial growth incubated for 16 to 18 hrs by broth micro dilution technique; format: functional; conditions: time 16-18 hrs
HepG2 = experiment: Cytotoxicity against human HepG2 cells assessed as growth inhibition incubated for 68 hrs by MTT assay; format: functional, cell-based; conditions: HepG2, 68 h
Staphylococcus aureus [7] = experiment: Antimicrobial activity against Staphylococcus aureus Sau 991 assessed as inhibition of bacterial growth incubated for 16 to 18 hrs by broth micro dilution technique; format: functional; conditions: time 16-18 hrs
L02 = experiment: Cytotoxicity against human L02 cells assessed as growth inhibition incubated for 68 hrs by MTT assay; format: cell-based; conditions: L02, 68 h
RKO = experiment: Cytotoxicity against human RKO cells assessed as growth inhibition incubated for 68 hrs by MTT assay; format: functional, cell-based
BEAS-2B = experiment: Cytotoxicity against human BEAS-2B cells assessed as growth inhibition incubated for 68 hrs by MTT assay; format: cell-based
Staphylococcus aureus [8] = experiment: Antimicrobial activity against Staphylococcus aureus CCAM 3090 assessed as inhibition of bacterial growth incubated for 16 to 18 hrs by broth micro dilution technique; format: functional; conditions: time 16-18 hrs
HeLa = experiment: Cytotoxicity against human HeLa cells assessed as growth inhibition incubated for 68 hrs by MTT assay; format: functional, cell-based

SMILES	MIC (Candida albicans)	MIC (Micrococcus luteus)	pIC50 (A549)	pIC50 (HL-60)	MIC (Enterococcus faecium)	MIC (Staphylococcus aureus [1])	MIC (Staphylococcus aureus [2])	MIC (Bacillus thuringiensis)	MIC (Staphylococcus aureus [3])	MIC (Enterococcus faecalis)	MIC (Staphylococcus aureus [4])	pIC50 (MCF7)	MIC (Staphylococcus aureus [5])	MIC (Staphylococcus aureus [6])	pIC50 (HepG2)	MIC (Staphylococcus aureus [7])	pIC50 (L02)	pIC50 (RKO)	pIC50 (BEAS-2B)	MIC (Staphylococcus aureus [8])	also measured
CC(C)[C@H]1C(=O)O[C@H](C)[C@H](NC(=O)c2c3nc4c(C(=O)N[C@@H]5C(=O)N[C@H](C(C)C)C(=O)N6CCC[C@H]6C(=O)N(CO)CC(=O)N(C)[C@@H](C(C)C)C(=O)O[C@@H]5C)ccc(Br)c4oc-3c(Br)c(=O)c2N)C(=O)N[C@H](C(C)C)C(=O)N2CCC[C@H]2C(=O)N(C)CC(=O)N1C	8 µg/mL (≈ 5.71 µM)	2 µg/mL (≈ 1.43 µM)	4.42	< 4.30	4 µg/mL (≈ 2.85 µM)	32 µg/mL (≈ 22.8 µM)	32 µg/mL (≈ 22.8 µM)	4 µg/mL (≈ 2.85 µM)	16 µg/mL (≈ 11.4 µM)	32 µg/mL (≈ 22.8 µM)	32 µg/mL (≈ 22.8 µM)	4.89	32 µg/mL (≈ 22.8 µM)	32 µg/mL (≈ 22.8 µM)	< 4.30	32 µg/mL (≈ 22.8 µM)	4.88	4.61	5.24	32 µg/mL (≈ 22.8 µM)	pIC50 (HeLa): < 4.30
CC(C)[C@H]1C(=O)O[C@H](C)[C@H](NC(=O)c2c3nc4c(C(=O)N[C@@H]5C(=O)N[C@H](C(C)C)C(=O)N6CCC[C@H]6C(=O)N(C)CC(=O)N(C)[C@@H](C(C)C)C(=O)O[C@@H]5C)ccc(I)c4oc-3c(I)c(=O)c2N)C(=O)N[C@H](C(C)C)C(=O)N2CCC[C@H]2C(=O)N(C)CC(=O)N1C	0.13 µg/mL (≈ 0.0879 µM)	< 0.06 µg/mL	5.30	7.30	0.06 µg/mL (≈ 0.0406 µM)	4 µg/mL (≈ 2.7 µM)	4 µg/mL (≈ 2.7 µM)	0.13 µg/mL (≈ 0.0879 µM)	2 µg/mL (≈ 1.35 µM)	2 µg/mL (≈ 1.35 µM)	4 µg/mL (≈ 2.7 µM)	5.96	2 µg/mL (≈ 1.35 µM)	2 µg/mL (≈ 1.35 µM)	7.00	2 µg/mL (≈ 1.35 µM)	5.82	6.70	6.30	4 µg/mL (≈ 2.7 µM)	pIC50 (HeLa): 6.70
CC(C)[C@H]1C(=O)O[C@H](C)[C@H](NC(=O)c2c3nc4c(C(=O)N[C@@H]5C(=O)N[C@H](C(C)C)C(=O)N6CCC[C@H]6C(=O)N(C)CC(=O)N(C)[C@@H](C(C)C)C(=O)O[C@@H]5C)cccc4oc-3c(Cl)c(=O)c2N)C(=O)N[C@H](C(C)C)C(=O)N2CCC[C@H]2C(=O)N(C)CC(=O)N1C	8 µg/mL (≈ 6.34 µM)	0.25 µg/mL (≈ 0.198 µM)	–	–	2 µg/mL (≈ 1.59 µM)	32 µg/mL (≈ 25.4 µM)	16 µg/mL (≈ 12.7 µM)	4 µg/mL (≈ 3.17 µM)	8 µg/mL (≈ 6.34 µM)	16 µg/mL (≈ 12.7 µM)	16 µg/mL (≈ 12.7 µM)	–	8 µg/mL (≈ 6.34 µM)	8 µg/mL (≈ 6.34 µM)	–	8 µg/mL (≈ 6.34 µM)	–	–	–	16 µg/mL (≈ 12.7 µM)	–
CC(C)[C@H]1C(=O)O[C@H](C)[C@H](NC(=O)c2c3nc4c(C(=O)N[C@@H]5C(=O)N[C@H](C(C)C)C(=O)N6CCC[C@H]6C(=O)N(C)CC(=O)N(C)[C@@H](C(C)C)C(=O)O[C@@H]5C)ccc(Br)c4oc-3c(Br)c(=O)c2N)C(=O)N[C@H](C(C)C)C(=O)N2CCC[C@H]2C(=O)N(C)CC(=O)N1C	16 µg/mL (≈ 11.6 µM)	< 0.06 µg/mL	5.96	7.40	0.13 µg/mL (≈ 0.0939 µM)	16 µg/mL (≈ 11.6 µM)	8 µg/mL (≈ 5.78 µM)	0.25 µg/mL (≈ 0.18 µM)	8 µg/mL (≈ 5.78 µM)	16 µg/mL (≈ 11.6 µM)	16 µg/mL (≈ 11.6 µM)	5.82	8 µg/mL (≈ 5.78 µM)	8 µg/mL (≈ 5.78 µM)	5.62	8 µg/mL (≈ 5.78 µM)	4.75	5.82	5.66	8 µg/mL (≈ 5.78 µM)	pIC50 (HeLa): 5.21
CC1(C)S[C@@H]2[C@H](NC(=O)[C@H](N)c3ccccc3)C(=O)N2[C@H]1C(=O)O [AMPICILLIN]	0.13 µg/mL (≈ 0.372 µM)	0.13 µg/mL (≈ 0.372 µM)	–	–	> 64 µg/mL	64 µg/mL (≈ 183 µM)	1 µg/mL (≈ 2.86 µM)	2 µg/mL (≈ 5.72 µM)	–	32 µg/mL (≈ 91.6 µM)	8 µg/mL (≈ 22.9 µM)	–	2 µg/mL (≈ 5.72 µM)	8 µg/mL (≈ 22.9 µM)	–	–	–	–	–	> 64 µg/mL	–
CN[C@H](CC(C)C)C(=O)N[C@H]1C(=O)N[C@@H](CC(N)=O)C(=O)N[C@H]2C(=O)N[C@H]3C(=O)N[C@H](C(=O)N[C@H](C(=O)O)c4cc(O)cc(O)c4-c4cc3ccc4O)[C@H](O)c3ccc(c(Cl)c3)Oc3cc2cc(c3O[C@@H]2O[C@H](CO)[C@@H](O)[C@H](O)[C@H]2O[C@H]2C[C@](C)(N)[C@H](O)[C@H](C)O2)Oc2ccc(cc2Cl)[C@H]1O [VANCOMYCIN]	0.25 µg/mL (≈ 0.173 µM)	0.25 µg/mL (≈ 0.173 µM)	–	–	> 64 µg/mL	64 µg/mL (≈ 44.2 µM)	–	4 µg/mL (≈ 2.76 µM)	–	1 µg/mL (≈ 0.69 µM)	–	–	–	–	–	–	–	–	–	0.25 µg/mL (≈ 0.173 µM)	–
